The values below come from patent publication US20230391845A1, “GLP-1, GIP AND GLUCAGON RECEPTOR TRIPLE AGONISTS” (priority 2020, published 2023).

Read-outs that look alike come from different tables or passages of the source. *1 amine or outer side, *2 acyl side, *3 side chain or, on linkers, in order; H or OH if unused. Where a SMILES comes first, the peptide text is derived from it. Side-chain parts run from the residue outwards. [ ]: non-standard residue; d: D form. The star is where a group is joined. C20 diacid = O=C(O)CCCCCCCCCCCCCCCCCCC(=O)*; γGlu = O=C(O)[C@H](CCC(=O)[*:2])N[*:1]; εLys = N[C@@H](CCCCN[*:1])C(=O)[*:2]; Palmitoyl = CCCCCCCCCCCCCCCC(=O)*; Aib = CC(C)(N)C(=O)O

Data set [1] addresses T1, human GIP receptor (Homo sapiens, UniProt P48546).
T1 construct: expressed in transfected cells; host or cells: BHK cells (parent line BHKTS13) containing CRE luciferase
T1 sequence (P48546 22-466): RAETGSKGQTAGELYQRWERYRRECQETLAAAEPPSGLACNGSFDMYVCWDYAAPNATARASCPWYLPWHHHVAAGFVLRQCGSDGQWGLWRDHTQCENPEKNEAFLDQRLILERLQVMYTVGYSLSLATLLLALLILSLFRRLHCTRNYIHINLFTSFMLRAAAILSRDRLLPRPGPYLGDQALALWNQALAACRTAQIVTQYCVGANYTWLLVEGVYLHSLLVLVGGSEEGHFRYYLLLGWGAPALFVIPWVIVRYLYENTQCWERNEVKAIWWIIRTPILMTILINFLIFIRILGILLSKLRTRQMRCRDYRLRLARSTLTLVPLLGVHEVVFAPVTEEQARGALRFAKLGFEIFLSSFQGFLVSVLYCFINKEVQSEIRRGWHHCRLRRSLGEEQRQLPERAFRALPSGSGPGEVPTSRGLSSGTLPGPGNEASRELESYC
The data set is described as follows: In vitro functional potency (CRE luciferase; whole cells), human GIPR. Format: cell-based. The conditions noted are these: BHK CRE luc2P hGIPR whole cells, read-out: hGIPR CRE Luc EC50.

The target in data set [2] is T2, human GLP-1 receptor (Homo sapiens, UniProt P43220).
T2 construct: expressed in transfected cells; host or cells: BHK cells (parent line BHKTS13) containing CRE luciferase
T2 sequence (P43220 24-463): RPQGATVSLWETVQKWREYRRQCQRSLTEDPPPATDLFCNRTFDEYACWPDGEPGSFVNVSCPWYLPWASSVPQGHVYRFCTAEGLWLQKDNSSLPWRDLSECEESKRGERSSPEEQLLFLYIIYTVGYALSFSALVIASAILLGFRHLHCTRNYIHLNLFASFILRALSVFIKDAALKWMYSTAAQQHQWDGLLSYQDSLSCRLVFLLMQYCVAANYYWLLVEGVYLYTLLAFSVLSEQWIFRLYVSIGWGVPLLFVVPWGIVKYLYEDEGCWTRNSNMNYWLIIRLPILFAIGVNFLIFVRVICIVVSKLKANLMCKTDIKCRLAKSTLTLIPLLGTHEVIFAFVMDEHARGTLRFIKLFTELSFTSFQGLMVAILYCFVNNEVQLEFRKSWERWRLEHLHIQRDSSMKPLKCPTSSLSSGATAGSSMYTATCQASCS
The data set can be described thus: In vitro functional potency (CRE luciferase; whole cells), human GLP-1R. Format: cell-based.

The nature of data set [3]: Pharmacokinetic study in minipigs, i.v. administration. Also on record: species or system Göttingen minipigs. To be noted: female, Göttingen, minipig, in vivo, iv; minipigs, i.v. administration, harmonic mean; read-out: Terminal half-life t1/2 (converted). The procedure, abridged:
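Terminal half-life, reported as harmonic mean, came from non-compartmental fits of plasma levels measured by antibody assay or LCMS over up to 14 days. Dosing was i.v., typically 1.5-2 nmol/kg, through implanted caval catheters in fasted female Göttingen minipigs of 16-35 kg.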

Data set [4] is described as follows: Pharmacodynamic study in DIO mice, daily s.c. dosing over 13 days (body weight, food intake). Format: in vivo, C57BL/6J male mice. To be noted: for Absolute BW (grams) Day 0: Day 0 (baseline); for Cumulative food intake (grams) Day 13: mean ± SEM, n = 2. The procedure: The purpose of this example is to assess the in vivo effect of selected triple agonists on pharmacodynamic parameters in diet-induced obese (DIO) mice. The animals were treated once daily via subcutaneous injection with a liquid formulation of the triple agonist to be tested to assess effects on body weight, foot intake, and glucose tolerance.
C57BL/6J male mice were purchased from Jackson Laboratories at approximately 8 weeks of age. Mice were group housed and fed a high-fat, high-sugar diet from Research Diets (D12331). Mice were maintained on this diet for 12 weeks prior to initializing the pharmacology studies. Mice exceeding a measured body weight of 50 grams were considered diet-induced obese (DIO) and included in pharmacology studies. Mice were exposed to a controlled 12 h:12 h light:dark cycle at ambient room temperature (22° C.) with ab libitum access to food and water. Studies were approved by and performed according to the guidelines of the Institutional Animal Care and Use Committee of the University of Cincinnati.
All compounds in the study were formulated in the following buffer: 50 mM phosphate; 70 mM sodium chloride; 0.05% Tween-80, pH 7.4. Dosing solutions were formulated in glass vials and stored at 2-8° C. Dosing solutions were brought to room temperature before dosing and returned to 2-8° C. after dosing.
The animals were grouped to receive treatment as follows: Vehicle or GLP-1/GIP/Gcg receptor triple agonists as described herein, where vehicle is 50 mM phosphate, 70 mM sodium chloride; 0.05% (v/v) Tween-80, pH 7.4. The test compounds were dissolved in the vehicle, to stock concentrations of […], then diluted 50- to 200-fold in the vehicle to achieve the desired dosing solution concentrations. Animals were dosed subcutaneously once daily in the morning for each day of treatment with dosing solution at a volume of 2-5 μL per gram of body weight as necessary to achieve the desired dose (e.g. 0.3 nmol/kg, 1.0 nmol/kg, or 3.0 nmol/kg).
Body weight (BW) and food intake were measured immediately prior to dosing each day. The percent change in body was calculated individually for each mouse based on initial body weight prior to the first injection.

[5] abbreviates: daily s.c. dosing over 13 days, compared to vehicle.

On to `CC(C)C[C@H](NC(=O)[C@H](CC(C)C)NC(=O)[C@H](Cc1c[nH]c2ccccc12)NC(=O)[C@H](CCC(N)=O)NC(=O)[C@@H](NC(=O)[C@H](Cc1ccccc1)NC(=O)[C@H](CCC(=O)O)NC(=O)C(C)(C)NC(=O)[C@H](C)NC(=O)[C@H](Cc1ccc(O)cc1)NC(=O)[C@H](CCC(N)=O)NC(=O)[C@H](CCCCNC(=O)[C@@H](N)CCCCNC(=O)[C@@H](N)CCCCNC(=O)CC[C@H](NC(=O)CCCCCCCCCCCCCCCCCCC(=O)O)C(=O)O)NC(=O)[C@H](CCC(=O)O)NC(=O)[C@H](CC(C)C)NC(=O)[C@H](Cc1ccc(O)cc1)NC(=O)[C@H](Cc1ccc(O)cc1)NC(=O)[C@H](CO)NC(=O)[C@H](Cc1ccc(O)cc1)NC(=O)[C@H](CC(=O)O)NC(=O)[C@H](CO)NC(=O)[C@@H](NC(=O)[C@H](Cc1ccccc1)NC(=O)[C@@H](NC(=O)CNC(=O)[C@H](Cc1c[nH]cn1)NC(=O)C(C)(C)NC(=O)[C@@H](N)Cc1c[nH]cn1)[C@@H](C)O)[C@@H](C)O)C(C)C)C(=O)N[C@@H](CCC(=O)O)C(=O)NCC(=O)NCC(=O)N1CCC[C@H]1C(=O)N[C@@H](CO)C(=O)N[C@@H](CO)C(=O)NCC(=O)N[C@@H](C)C(=O)N1CCC[C@H]1C(=O)N1CCC[C@H]1C(=O)N1CCC[C@H]1C(=O)N[C@@H](CO)C(N)=O` [Compound No. 29] (H-H[Aib]HGTFTSDYSYYLEK([εLys-εLys-γGlu-C20 diacid])QYA[Aib]EFVQWLLEGGPSSGAPPPS-NH2), for which the EC50 in data set [1] (Table 2) is 7.2 pM.

Consider `CC[C@H](C)[C@H](NC(=O)[C@H](CO)NC(=O)[C@H](Cc1ccc(O)cc1)NC(=O)[C@H](CC(=O)O)NC(=O)[C@H](CO)NC(=O)[C@@H](NC(=O)[C@H](Cc1ccccc1)NC(=O)[C@@H](NC(=O)CNC(=O)[C@H](Cc1c[nH]cn1)NC(=O)C(C)(C)NC(=O)[C@@H](N)Cc1c[nH]cn1)[C@@H](C)O)[C@@H](C)O)C(=O)N[C@@H](Cc1ccc(O)cc1)C(=O)N[C@@H](CC(C)C)C(=O)N[C@@H](CC(=O)O)C(=O)N[C@@H](CCCCNC(=O)[C@@H](N)CCCCNC(=O)[C@@H](N)CCCCNC(=O)CC[C@H](NC(=O)CCCCCCCCCCCCCCCCCCC(=O)O)C(=O)O)C(=O)N[C@@H](CCC(N)=O)C(=O)N[C@@H](C)C(=O)N[C@@H](C)C(=O)NC(C)(C)C(=O)N[C@@H](CCC(=O)O)C(=O)N[C@@H](Cc1ccccc1)C(=O)N[C@H](C(=O)N[C@@H](CCC(N)=O)C(=O)N[C@@H](Cc1c[nH]c2ccccc12)C(=O)N[C@@H](CC(C)C)C(=O)N[C@@H](CC(C)C)C(=O)N[C@@H](CCC(=O)O)C(=O)NCC(=O)NCC(=O)N1CCC[C@H]1C(=O)N[C@@H](CO)C(=O)N[C@@H](CO)C(=O)NCC(=O)N[C@@H](C)C(=O)N1CCC[C@H]1C(=O)N1CCC[C@H]1C(=O)N1CCC[C@H]1C(=O)N[C@@H](CO)C(N)=O)C(C)C` [Compound No. 28] (H-H[Aib]HGTFTSDYSIYLDK([εLys-εLys-γGlu-C20 diacid])QAA[Aib]EFVQWLLEGGPSSGAPPPS-NH2), for which, in data set [1] (Table 2), the EC50 amounted to 7.7 pM.

`CCCCCCCCCCCCCCCC(=O)NCCCC[C@H](NC(=O)[C@H](CO)NC(=O)[C@@H]1CCCN1C(=O)[C@@H]1CCCN1C(=O)[C@@H]1CCCN1C(=O)[C@H](C)NC(=O)CNC(=O)[C@H](CO)NC(=O)[C@H](CO)NC(=O)[C@@H]1CCCN1C(=O)CNC(=O)CNC(=O)[C@H](C)NC(=O)[C@H](CC(C)C)NC(=O)[C@H](CC(C)C)NC(=O)[C@H](Cc1c[nH]c2ccccc12)NC(=O)[C@H](CC(N)=O)NC(=O)[C@@H](NC(=O)[C@H](Cc1ccccc1)NC(=O)[C@H](CCC(=O)O)NC(=O)C(C)(C)NC(=O)[C@H](C)NC(=O)[C@H](C)NC(=O)[C@H](CCC(N)=O)NC(=O)[C@H](CCCCN)NC(=O)[C@H](CC(=O)O)NC(=O)[C@H](CC(C)C)NC(=O)[C@H](Cc1ccc(O)cc1)NC(=O)[C@@H](NC(=O)[C@H](CO)NC(=O)[C@H](Cc1ccc(O)cc1)NC(=O)[C@H](CC(=O)O)NC(=O)[C@H](CO)NC(=O)[C@@H](NC(=O)[C@H](Cc1ccccc1)NC(=O)[C@@H](NC(=O)CNC(=O)[C@H](CCC(N)=O)NC(=O)C(C)(C)NC(=O)[C@@H](N)Cc1ccc(O)cc1)[C@@H](C)O)[C@@H](C)O)[C@@H](C)CC)C(C)C)C(N)=O` [Compound No. 58, reference compound] (H-Y[Aib]QGTFTSDYSIYLDKQAA[Aib]EFVNWLLAGGPSSGAPPPSK(Palmitoyl)-NH2; N-terminus assumed): the EC50 in data set [1] (Table 1, position of substituent varied) was 7.2 pM.

In data set [2], `CC[C@H](C)[C@H](NC(=O)[C@H](CO)NC(=O)[C@H](Cc1ccc(O)cc1)NC(=O)[C@H](CC(=O)O)NC(=O)[C@H](CO)NC(=O)[C@@H](NC(=O)[C@H](Cc1ccccc1)NC(=O)[C@@H](NC(=O)CNC(=O)[C@H](Cc1c[nH]cn1)NC(=O)C(C)(C)NC(=O)[C@@H](N)Cc1c[nH]cn1)[C@@H](C)O)[C@@H](C)O)C(=O)N[C@@H](CC(C)C)C(=O)N[C@@H](CC(C)C)C(=O)N[C@@H](CCC(=O)O)C(=O)N[C@@H](CCCCNC(=O)[C@@H](N)CCCCNC(=O)[C@@H](N)CCCCNC(=O)CC[C@H](NC(=O)CCCCCCCCCCCCCCCCCCC(=O)O)C(=O)O)C(=O)N[C@@H](CCC(N)=O)C(=O)N[C@@H](C)C(=O)N[C@@H](C)C(=O)NC(C)(C)C(=O)N[C@@H](CCC(=O)O)C(=O)N[C@@H](Cc1ccccc1)C(=O)N[C@H](C(=O)N[C@@H](CCC(N)=O)C(=O)N[C@@H](Cc1c[nH]c2ccccc12)C(=O)N[C@@H](CC(C)C)C(=O)N[C@@H](CC(C)C)C(=O)N[C@@H](CCC(=O)O)C(=O)NCC(=O)NCC(=O)N1CCC[C@H]1C(=O)N[C@@H](CO)C(=O)N[C@@H](CO)C(=O)NCC(=O)N[C@@H](C)C(=O)N1CCC[C@H]1C(=O)N1CCC[C@H]1C(=O)N1CCC[C@H]1C(=O)N[C@@H](CO)C(N)=O)C(C)C` [Compound No. 43] (H-H[Aib]HGTFTSDYSILLEK([εLys-εLys-γGlu-C20 diacid])QAA[Aib]EFVQWLLEGGPSSGAPPPS-NH2) showed an EC50 of 3 pM. In data set [3], the half-life was 71 h. Further, the “Absolute BW (grams) Day 0” value in data set [4] (1.0 nmol/kg group) is 60.4 ± 1.0 grams. Besides, in data set [4] (1.0 nmol/kg s.c. once daily), the “Absolute BW (grams) Day 13” value was determined as 48.7 ± 1.4 grams, the “Change in BW (%) Day 13” value was −19.4 ± 1.5% and the “Cumulative food intake (grams) Day 13” value was found to be 21.1 ± 3.3 grams. Besides, the “Absolute BW (grams) Day 0” value in data set [4] (3.0 nmol/kg group) came to 60.1 ± 1.9 grams. In data set [4] (3.0 nmol/kg s.c. once daily), the “Absolute BW (grams) Day 13” value is 36.3 ± 1.0 grams, the “Change in BW (%) Day 13” value was −39.5 ± 1.3% and the “Cumulative food intake (grams) Day 13” value was 11.5 ± 2.4 grams. In data set [4] (setting [5]), the “reduction in body weight (in words)” value is “superior reduction” and the “reduction in food intake (in words)” value is recorded as “superior reduction”.
